According to patent publication US20250009697A1, “COMPOSITION FOR INCREASING AMOUNT OF FOOD INGESTED AND/OR IMPROVING ANOREXIA, AND COMPOSITION FOR ACTIVATING TRANSIENT RECEPTOR POTENTIAL ANKYRIN 1” (HOUSE FOODS GROUP INC., priority 2021, published 2025):

Tests used:
Human TRPA1 (hTRPA1) [1] = biological target: T1, Human TRPA1 (hTRPA1) (Homo sapiens, UniProt O75762); experiment: TRPA1 Activation Test 2: intracellular Ca2+ imaging assay 2-1 to 2-3, hTRPA1 stably expressing cell line; assay type: cell-based; details: for TRPA1 activation rates: Table 10; for Concentration dependence of TRPA1 activity (in words): additional experiments; for TRPA1 activating action (in words): hTRPA1 stably expressing cell line; for TRPA1 activation rate, With antagonist / TRPA1 activation rate, Without antagonist: Table 11
T1 construct: expressed in transfected cells
Protocol: (§1) DNAs encoding genes described in the following Table 2 were inserted into pcDNA 5/TO vector (Invitrogen) to prepare various expression vectors.
(§2) These expression vectors were transfected into T-REx™_293 cells (Invitrogen) by a conventional method using Lipofectamine LTX (Invitrogen). Then, various transfectants were cultured and cloned by a conventional method using Dulbecco's Modified Eagle Medium (DMEM, Nacalai Tesque Inc.), containing 10% fetal bovine serum (FBS, Cytiva), […] of hygromycin B, and 5 μg/mL of blasticidin S, as a drug selection medium to obtain a hTRPA1 stably expressing cell line, a hTRPV1 stably expressing cell line, and a hTRPM8 stably expressing cell line.
(§3) A hTRPA1 stably expressing cell line in which expression of hTRPA1 had been induced in advance by a conventional method was prepared in a 96 well clear bottom plate, and the hTRPA1 activating action of rhein (produced by Tokyo Chemical Industry Co., Ltd.) was tested. Specifically, after each well was washed with PBS, 50 μL of an assay buffer (Hanks' balanced salt solution containing no calcium ion or magnesium ion that contained 1 mM of CaCl2 dihydrate, 20 mM of HEPES, and 0.1% BSA) containing calcium fluorescent indicator Calbryte™ 520 AM (produced by AAT Bioquest) in a final concentration of 4 μM was added, followed by incubating at 33° C. for 45 minutes. After washing with the assay buffer, 100 μL of the assay buffer was added to each well. This plate was set to FlexStation 3 (Molecular Devices, LLC), and a fluorescence intensity (excitation wavelength 490 nm, fluorescence wavelength 525 nm) at 31° C. was measured every two seconds, and 30 seconds after the start of the measurement, 100 μL of an assay buffer containing a test sample (allyl isothiocyanate (AITC) of positive control or rhein) which was prepared to have a certain final concentration or DMSO was added. Then, a well in which an assay buffer containing ionomycin (having a final concentration of 10 μM after the addition) instead of the test samples was added was also prepared as a reference for fluorescence intensity.
(§4) The measurement was continued from the start of the measurement up to 120 seconds, and the TRPA1 activation ability of the test samples was calculated in accordance with the following formula.
(§5) Activation rate (%)=(Fmax[s]−F0)/(Fmax[i]−F0)×100 • Fmax[s]: The maximum value of the fluorescence intensity when the test sample or positive control was added • F0: The average value of the fluorescence intensity for 20 seconds after the start of the measurement (base line) • Fmax[i]: The maximum value of the fluorescence intensity when ionomycin was added
The TRPA1 activation ability of each test sample was measured in the same manner as in the above (2) except the test was conducted with A-967079 (1 μM), which is a TRPA1-specific antagonist, or without A-967079. In addition, intracellular Ca^2+ imaging assay was conducted in the same manner as in the above (2) except that a hTRPV1 stably expressing cell line, a hTRPM8 stably expressing cell line, or a Mock cell was used instead of the hTRPA1 stably expressing cell line. Note that capsaicin was used as positive control for the hTRPV1 stably expressing cell line, and icilin was used as positive control for the hTRPM8 stably expressing cell line.
A TRPA1 activation ability was measured in the same manner as in the above (2) by using, as a test sample, rhein or compounds described in the following Table 10, which had anthraquinone structures similar to rhein, at a concentration of 200 μM of the test sample.

[2] = Anorexia Improving Test 3: cumulative amounts of food ingested of mice, rhein with or without A-967079; assay type: in vivo; details: oral, rhein 100 μmol/kg body weight, A-967079 10 μmol/kg body weight
Protocol: Male ICR mice were housed in individual cages in which ALPHA-dri (Shepherd Specialty Papers) was laid, and were acclimatized and raised for at least one week or more while a powder feed (CE-2, CLEA Japan, Inc.) was given to the mice by using a powder feeder for mice (SN-950, Shinano Manufacturing Co., Ltd.). Then, for several days before the experiment, handling and oral administration training using a feeding needle (FG4202, Fuchigami Kikai Co., Ltd.) were conducted every day. To 9 week-old mice under ad libitum feeding conditions, a carrier solution (containing 2% of dimethyl sulfoxide and 98% of a 0.5% methyl cellulose solution in volume ratio) or a rhein solution (obtained by dissolving 8.53 mg of rhein in 1 mL of the carrier solution) was orally administered from 9:20 a.m. (10 mL/kg body weight). The dosage of rhein was 300 μmol/kg body weight in terms of molar concentration. Then, a feeder the mass of which had been measured in advance was set in the cage at 9:30 a.m. The masses of the feeder and the feed spilled in the cage 0.5, 1, 2, and 3 hours after the start of the feeding experiment were measured, and the ingested mass (g) at each time was measured (n=6). The ingested mass (g) of each mouse was measured in the same manner as in anorexia improving test 2 (the above item 5) except that 10 mL/kg body weight of a carrier solution, a rhein solution (100 μmol/kg body weight), an A-967079 solution (10 μmol/kg body weight), or a mixed solution of A-967079 and rhein (in 10 μmol/kg body weight and 100 μmol/kg body weight, respectively) was orally administered to the mouse. Results obtained by calculating the cumulative amounts of food ingested and conducting a multiple comparison (multiple t-test) by the Dunn-Bonferroni method are shown in Table 12.

Human TRPA1 (hTRPA1) [3] = biological target: T1, Human TRPA1 (hTRPA1); experiment: TRPA1 Activation Test 1: intracellular Ca2+ imaging assay 1-1 to 1-3, hTRPA1 stably expressing cell line; assay type: cell-based; details: for TRPA1 activating action with TRPA1-specific antagonist (in words) / TRPA1 activation rate, With antagonist: A-967079 1 μM; for TRPA1 activating action (in words): hTRPA1 stably expressing cell line; for TRPA1 activation rate, With antagonist / TRPA1 activation rate, Without antagonist: Table 6
Protocol: as §1, §2
as §3, with “bottom plate (black),” for “bottom plate,”, “and a” for “and the”, “of the purified oxylipin or the R2 fraction (both were assumed to contain a compound having a molecular weight of 294) obtained in the above item 1” for “of rhein (produced by Tokyo Chemical Industry Co., Ltd.)”, “calcium ions” for “calcium ion”, “magnesium ions” for “magnesium ion”, “sample” for “sample (allyl isothiocyanate (AITC) of positive control or rhein)”
as §4
as §5, with “sample or the positive control” for “sample or positive control”
The TRPA1 activation ability was measured in the same manner as in the above (2) except that the R2 fraction or allyl isothiocyanate (AITC) was used as a test sample and the test was conducted with A-967079 (1 μM), which is a TRPA1-specific antagonist, or without A-967079. In addition, regarding the R2 fraction, the hTRPV1 stably expressing cell line or the hTRPM8 stably expressing cell line was used instead of the hTRPA1 stably expressing cell line to conduct the same test. Note that as positive controls, capsaicin was used for the hTRPV1 stably expressing cell line and icilin was used for the hTRPM8 stably expressing cell line.
The TRPA1 activation ability was measured in the same manner as in the above (2) except that each isolated compound or allyl isothiocyanate (AITC) was used as a test sample and the test was conducted with A-967079 (1 μM), which was a TRPA1-specific antagonist, or without A-967079.

T1 sequence (O75762 whole entry): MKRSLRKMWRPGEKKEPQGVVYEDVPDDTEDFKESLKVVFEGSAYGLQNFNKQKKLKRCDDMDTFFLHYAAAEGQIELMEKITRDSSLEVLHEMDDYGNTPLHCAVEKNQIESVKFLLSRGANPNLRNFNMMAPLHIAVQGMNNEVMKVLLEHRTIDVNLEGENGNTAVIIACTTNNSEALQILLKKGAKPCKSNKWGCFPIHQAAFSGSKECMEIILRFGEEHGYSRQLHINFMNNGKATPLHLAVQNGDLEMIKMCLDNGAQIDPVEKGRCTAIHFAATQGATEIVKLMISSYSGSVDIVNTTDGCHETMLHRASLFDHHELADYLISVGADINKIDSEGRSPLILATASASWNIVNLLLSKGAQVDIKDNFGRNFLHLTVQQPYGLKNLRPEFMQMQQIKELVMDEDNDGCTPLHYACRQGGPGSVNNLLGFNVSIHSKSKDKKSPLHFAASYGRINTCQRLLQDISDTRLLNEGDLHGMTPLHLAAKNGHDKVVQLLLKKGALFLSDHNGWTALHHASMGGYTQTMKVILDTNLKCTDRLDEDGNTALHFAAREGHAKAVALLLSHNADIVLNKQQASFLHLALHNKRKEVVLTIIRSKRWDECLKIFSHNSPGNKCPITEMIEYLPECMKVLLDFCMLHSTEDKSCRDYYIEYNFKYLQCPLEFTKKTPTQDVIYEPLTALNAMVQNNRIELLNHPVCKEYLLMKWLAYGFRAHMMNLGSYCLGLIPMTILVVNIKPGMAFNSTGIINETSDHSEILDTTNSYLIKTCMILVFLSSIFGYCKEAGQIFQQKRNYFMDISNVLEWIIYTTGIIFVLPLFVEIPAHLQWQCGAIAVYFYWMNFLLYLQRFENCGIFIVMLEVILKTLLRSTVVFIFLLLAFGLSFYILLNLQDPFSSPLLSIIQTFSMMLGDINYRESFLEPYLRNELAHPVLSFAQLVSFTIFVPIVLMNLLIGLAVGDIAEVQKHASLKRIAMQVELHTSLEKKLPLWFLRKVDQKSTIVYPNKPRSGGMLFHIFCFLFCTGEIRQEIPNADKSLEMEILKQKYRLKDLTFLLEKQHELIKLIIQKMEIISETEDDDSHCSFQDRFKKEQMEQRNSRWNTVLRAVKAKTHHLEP

Molecule: O=C1c2cccc(O)c2C(=O)c2cccc(O)c21 [Anthrarufin, reference compound]
- TRPA1 activation rates (Human TRPA1 (hTRPA1) [1]; test sample 200 μM): 0.587 ± 0.0172%

Molecule: Cc1cc(O)c2c(c1)C(=O)c1cccc(O)c1C2=O [Chrysophanol, reference compound]
- TRPA1 activation rates (Human TRPA1 (hTRPA1) [1]; test sample 200 μM): 3.27 ± 0.439%

Molecule: CCC(=N\O)/C(C)=C/c1ccc(F)cc1 [Compound A-967079, reference compound]
- Cumulative amounts of food ingested of mice ([2]; 0.5 hour after the administration): 0.026 ± 0.0093 g
- Cumulative amounts of food ingested of mice ([2]; 1 hour after the administration): 0.042 ± 0.015 g
- Cumulative amounts of food ingested of mice ([2]; 2 hours after the administration): 0.088 ± 0.027 g
- Cumulative amounts of food ingested of mice ([2]; 3 hours after the administration): 0.20 ± 0.066 g

Molecule: CC/C=C/CC(O)/C=C/C=C\CCCCCCCC(=O)O (stereo not drawn) [Compound R1-2]
- TRPA1 activating action with TRPA1-specific antagonist (in words) (Human TRPA1 (hTRPA1) [3]): inhibited by the TRPA1-specific antagonist
- TRPA1 activating action (in words) (Human TRPA1 (hTRPA1) [3]): exhibited the TRPA1 activating action
- TRPA1 activation rate, With antagonist (Human TRPA1 (hTRPA1) [3]; test sample 200 μM): 1.75 ± 0.443%
- TRPA1 activation rate, Without antagonist (Human TRPA1 (hTRPA1) [3]; test sample 200 μM): 32.0 ± 1.40%
- TRPA1 activation rate, With antagonist (Human TRPA1 (hTRPA1) [3]; test sample 500 μM): 8.24 ± 1.13%
- TRPA1 activation rate, Without antagonist (Human TRPA1 (hTRPA1) [3]; test sample 500 μM): 95.9 ± 1.79%

Molecule: CCC(O)/C=C/C=C\C/C=C\CCCCCCCC(=O)O (stereo not drawn) [Compound R2-2]
- TRPA1 activating action with TRPA1-specific antagonist (in words) (Human TRPA1 (hTRPA1) [3]): inhibited by the TRPA1-specific antagonist
- TRPA1 activating action (in words) (Human TRPA1 (hTRPA1) [3]): exhibited the TRPA1 activating action
- TRPA1 activation rate, With antagonist (Human TRPA1 (hTRPA1) [3]; test sample 200 μM): 0.71 ± 0.0743%
- TRPA1 activation rate, Without antagonist (Human TRPA1 (hTRPA1) [3]; test sample 200 μM): 21.6 ± 5.63%
- TRPA1 activation rate, With antagonist (Human TRPA1 (hTRPA1) [3]; test sample 500 μM): 1.96 ± 0.548%
- TRPA1 activation rate, Without antagonist (Human TRPA1 (hTRPA1) [3]; test sample 500 μM): 77.5 ± 0.988%

Molecule: CC/C=C\C/C=C\C=C\C(O)CCCCCCCC(=O)O (stereo not drawn) [Compound R3]
- TRPA1 activating action with TRPA1-specific antagonist (in words) (Human TRPA1 (hTRPA1) [3]): inhibited by the TRPA1-specific antagonist
- TRPA1 activating action (in words) (Human TRPA1 (hTRPA1) [3]): exhibited the TRPA1 activating action
- TRPA1 activation rate, With antagonist (Human TRPA1 (hTRPA1) [3]; test sample 200 μM): 0.58 ± 0.0564%
- TRPA1 activation rate, Without antagonist (Human TRPA1 (hTRPA1) [3]; test sample 200 μM): 16.3 ± 0.812%
- TRPA1 activation rate, With antagonist (Human TRPA1 (hTRPA1) [3]; test sample 500 μM): 0.731 ± 0.237%
- TRPA1 activation rate, Without antagonist (Human TRPA1 (hTRPA1) [3]; test sample 500 μM): 93.6 ± 1.92%

Molecule: O=C1c2cccc(O)c2C(=O)c2c(O)cccc21 [Dantron, reference compound]
- TRPA1 activation rates (Human TRPA1 (hTRPA1) [1]; test sample 200 μM): 4.72 ± 0.762%

Molecule: Cc1cc(O)c2c(c1)C(=O)c1cc(O)cc(O)c1C2=O [Emodin, emodin]
- TRPA1 activating action with TRPA1-specific antagonist (in words) (Human TRPA1 (hTRPA1) [1]; A-967079): inhibited by A-967079
- Concentration dependence of TRPA1 activity (in words) (Human TRPA1 (hTRPA1) [1]): exhibited TRPA1 activity in concentration dependent manner
- TRPA1 activating action (in words) (Human TRPA1 (hTRPA1) [1]): exhibited TRPA1 activating actions
- TRPA1 activation rate, With antagonist (Human TRPA1 (hTRPA1) [1]; test sample 100 μM, A-967079): 0.881 ± 0.134 %
- TRPA1 activation rate, Without antagonist (Human TRPA1 (hTRPA1) [1]; test sample 100 μM): 49.4 ± 1.41%
- TRPA1 activation rate, With antagonist (Human TRPA1 (hTRPA1) [1]; test sample 200 μM, A-967079): 2.96 ± 0.246 %
- TRPA1 activation rates (Human TRPA1 (hTRPA1) [1]; test sample 200 μM): 43.1 ± 1.72%
- TRPA1 activation rate, Without antagonist (Human TRPA1 (hTRPA1) [1]; test sample 200 μM): 64.8 ± 3.73%
- TRPA1 activation rate, With antagonist (Human TRPA1 (hTRPA1) [1]; test sample 400 μM, A-967079): 6.25 ± 1.70 %
- TRPA1 activation rate, Without antagonist (Human TRPA1 (hTRPA1) [1]; test sample 400 μM): 71.29 ± 1.08%

Molecule: O=C(O)c1cc(O)c2c(c1)[C@H]([C@H]1c3cc(C(=O)O)cc(O)c3C(=O)c3c(O[C@@H]4O[C@H](CO)[C@@H](O)[C@H](O)[C@H]4O)cccc31)c1cccc(O[C@@H]3O[C@H](CO)[C@@H](O)[C@H](O)[C@H]3O)c1C2=O [Sennoside A, reference compound]
- TRPA1 activation rates (Human TRPA1 (hTRPA1) [1]; test sample 200 μM): 3.33 ± 0.705%

Molecule: aloe-emodin
- Concentration dependence of TRPA1 activity (in words) (Human TRPA1 (hTRPA1) [1]): exhibited TRPA1 activity in concentration dependent manner
- TRPA1 activating action (in words) (Human TRPA1 (hTRPA1) [1]): exhibited TRPA1 activating actions
- TRPA1 activation rates (Human TRPA1 (hTRPA1) [1]; test sample 200 μM): 15.3 ± 0.743%

Molecule: physcion
- Concentration dependence of TRPA1 activity (in words) (Human TRPA1 (hTRPA1) [1]): exhibited TRPA1 activity in concentration dependent manner
- TRPA1 activating action (in words) (Human TRPA1 (hTRPA1) [1]): exhibited TRPA1 activating actions
- TRPA1 activation rates (Human TRPA1 (hTRPA1) [1]; test sample 200 μM): 24.3 ± 0.760%
